# In patent US20220088031A1, “METHODS AND COMPOSITIONS FOR TREATING RESISTANT AND RECURRENT FORMS OF CANCER” (Health Research, Inc., priority 2019, published 2022):
# Columns and labels:
# Type in all cases: cell-based, human
# E006AA cells [1] = assay: Cell death quantification, Trypan blue exclusion assay
# Procedure: Cell viability assay: PCa cells (5×10^4 cells/well) were seeded on 6-well cell culture plates and incubated with DOC (1-20 nM) for 24 hrs. Floating and attached cells were collected using trypsinization. Live and dead cells were counted under a light microscope using a trypan blue exclusion assay.
# E006AA cells [2] = assay: Immunoblot analysis of CC in cytosolic and mitochondrial fractions; settings: DOC 24 hrs; AA PCa cells
# Procedure: (§1) Subcellular fractionation for the preparation of cytosolic and mitochondrial fractions: Cells were seeded on 15 cm cell culture plates followed by treatment with various compounds for the preparation of cytosolic and mitochondrial fractions as described. Cells were harvested via gentle scraping, washed twice with ice cold 1×PBS, and resuspended in homogenization buffer (20 mM HEPES, pH 7.4; 10 mM KCl; 1.5 mM MgCl2; 1 mM EDTA; 1 mM EGTA; 250 mM sucrose) supplemented with freshly added 1× protease inhibitor cocktail and 1 mM DTT. Cells were incubated in homogenization buffer for 30 min in ice and homogenized using a dounce homogenizer (˜25 strokes using pestle A). Cell homogenates were pre-cleared of unbroken cells and debris using centrifugation at 1000 g for 10 min. The supernatant was collected in new tubes and centrifuged at 12000 rpm for 20 min to obtain a mitochondrial pellet, which was washed 3 times with homogenization buffer and lysed in NP40 buffer, and stored as the mitochondrial fraction. The supernatant was ultra-centrifuged to obtain purified cytosol.
# (§2) Immunoblotting: Immunoblotting was performed as described previously. Protein lysates were prepared using a lysis in NP-40 buffer (50 mM Tris-HCl pH 7.4, 150 mM NaCl, 1 mM EDTA, 1 mM EGTA, 1% NP-40) supplemented with protease and phosphatase inhibitor cocktail. Protein content was quantified using a micro BCA protein estimation kit (Thermo Scientific, Waltham, Mass.; Cat #23235). Protein samples were resolved on 4-20% Criterion gels, transferred on nitrocellulose membranes (BioRad, Hercules, Calif.) and subjected to immunoblotting. Membranes were blocked in 5% fat free dry milk (Blotto, Santa Cruz, Dallas, Tex.; Cat #sc-2324) prepared in PBS-T (Tween-20) and incubated overnight in primary antibodies (1:1000 dilution) at 4° C. with continuous shaking. After washing with PBS-T, membranes were incubated in HRP conjugated anti-mouse or anti-rabbit secondary antibody at room temperature for 1 hr. After washing with PBS-T, proteins were detected using Clarity chemiluminescent reagent (BioRad, Hercules, Calif.; Cat #1705061) and X-Ray films (ASI, Fort Lauderdale, Fla.; Cat #XR1570). Membranes were stripped using stripping buffer and probed with HRP conjugated beta-actin antibody to ensure equal loading of proteins.
# LNCaP cells [3] = assay: Cell cycle analysis, PI staining; settings: DOC 24 hrs; CA PCa cells
# Procedure: (§3) Cell cycle analysis: Cell cycle phases in LNCaP and E006AA cells were analyzed using Propidium Iodide (PI) staining. Cells were treated with DOC for 24 hrs, fixed in 70% ethanol, stained with PI staining solution (0.1% sodium citrate, 0.2 mg/ml RNAse, 0.05 mg/ml propidium iodide, 0.2% NP 40, 1N HCl), and analyzed using flow cytometry. Data were analyzed using FACS-DIVA software and represented as % cells in each cell cycle phase.
# E006AA cells [4] = assay: Cell cycle analysis, PI staining; settings: DOC 24 hrs; AA PCa cells
# Procedure: as §3
# E006AA cells [5] = assay: Clonogenic assay; settings: exposure of DOC; AA PCa cells
# Procedure: (§4) Clonogenic assay: PCa cells were seeded in each well of 6 well cell culture plates. Cells were treated and plates were incubated in a CO2 cell culture incubator for 6 more days. Colonies were fixed in 10% formalin first and stained with 0.5% crystal violet solution. Plates were dried and pictures were captured using a Gel documentation system and Coomassie blue filter (Bio Rad, Hercules, Calif.).
# LNCaP, DU145, PC-3 cells = assay: Clonogenic assay; settings: exposure of DOC; CA PCa cells
# Procedure: as §4
# E006AA cells [6] = assay: Caspase-3 (DEVDase) activity assay; settings: DOC 24 hrs; AA PCa cells compared to CA PCa cells
# Procedure: Caspase-3 (DEVDase) activity assay: PCa cell lysates prepared in NP40 lysis buffer were incubated with DEVD-AFC (caspase-3 substrate) at 37° C. for 90 min in caspase activity assay buffer (50 mM HEPES pH 7.4, 150 mM NaCl, 1% CHAPS, 1 mM EDTA, 1 mM DTT, 50% glycerol). Fluorescence intensity was detected using a Synergy microplate reader at excitation and emission wavelengths of 400 nm and 508 nm, respectively. Arbitrary fluorescence units were normalized with protein content of cell lysates and represented as fold change compared to control groups.
# LNCaP cells [7] = assay: Immunoblot analysis of CC and Drp1 in cytosolic and mitochondrial fractions; settings: CA PCa cells
# Procedure: as §1, with “The supernatant was ultra-centrifuged to obtain purified cytosol.” left out
# Immunoblotting: Immunoblotting was performed as described previously. […] Protein content was quantified using a micro BCA protein estimation kit (Thermo Scientific, Waltham, Mass.; Cat #23235). […] After washing with PBS-T, proteins were detected using Clarity chemiluminescent reagent (BioRad, Hercules, Calif.; Cat #1705061) and X-Ray films (ASI, Fort Lauderdale, Fla.; Cat #XR1570). […]
# [8] = tested on: p-Drp1^S616 in LNCaP cells; assay: Immunoblot of p-Akt^S473 and p-Drp1^S616 after AKT inhibitor; settings: Wort 1 μM
# Procedure: as §2
smiles,measurement,setting,value
"O=C(O)C(=O)CBr [3-BrPA, 3-bromopyruvate]",cell death,E006AA cells [1]; in combination with DOC (24 hrs),induced dose-dependent cell death
"CC(=O)O[C@@]12CO[C@@H]1C[C@H](O)[C@@]1(C)C(=O)[C@H](O)C3=C(C)[C@@H](OC(=O)[C@H](O)[C@@H](NC(=O)OC(C)(C)C)c4ccccc4)C[C@@](O)([C@@H](OC(=O)c4ccccc4)[C@H]21)C3(C)C [DOC, Docetaxel]",CC expression and release from mitochondria to cytosol,E006AA cells [2],not in AA PCa cells
same,effect on the cell cycle,LNCaP cells [3],cell cycle arrest at G2/M phase
same,effect on the cell cycle,E006AA cells [4],cell cycle arrest at G2/M phase
same,colony forming ability (CFA),E006AA cells [5],not AA PCa
same,colony forming ability (CFA),"LNCaP, DU145, PC-3 cells",abolished CFA
same,DOC-induced caspase activation,E006AA cells [6],reduced in various AA PCa cells compared to CA PCa cells
same,DOC-induced cell death,"E006AA cells [1]; DOC 24 hrs, AA PCa cells compared to CA PCa cells",reduced in various AA PCa cells compared to CA PCa cells
same,CC expression and release from mitochondria to cytosol,LNCaP cells [7]; DOC 24 hrs,induced CC expression and release from mitochondria to the cytosolic compartment
same,Drp1 localization,LNCaP cells [7]; in response to DOC,translocated to mitochondria
COC[C@H]1OC(=O)c2coc3c2[C@@]1(C)C1=C(C3=O)[C@@H]2CCC(=O)[C@@]2(C)C[C@H]1OC(C)=O [wortmanin],Drp1 phosphorylation at S616,[8],Inhibition of Drp1 phosphorylation at S616
